In this assay the target is T1, AfAglB (AglB-L, A. fulgidus oligosaccharyltransferase) (Archaeoglobus fulgidus, UniProt O29867, G617C).
T1 construct: gene aglB3; full length 868 residues; E. coli C43(DE3); C-terminal His10 cut by thrombin leaving ELALVPR; single-subunit membrane protein in DDM, then LCP
Briefly: X-ray crystal structure (LCP), […] Å. The assay is classed as binding. Conditions: ternary complex with disulfide-tethered peptide TAMRA-APY(Dab)VTASCR and Mn2+; pH 6.0; LLO donor site; from hydrolysis of native LLO mixture (C55 and C60) during crystallization, modelled as C60.

T1 sequence (O29867 whole entry G617C): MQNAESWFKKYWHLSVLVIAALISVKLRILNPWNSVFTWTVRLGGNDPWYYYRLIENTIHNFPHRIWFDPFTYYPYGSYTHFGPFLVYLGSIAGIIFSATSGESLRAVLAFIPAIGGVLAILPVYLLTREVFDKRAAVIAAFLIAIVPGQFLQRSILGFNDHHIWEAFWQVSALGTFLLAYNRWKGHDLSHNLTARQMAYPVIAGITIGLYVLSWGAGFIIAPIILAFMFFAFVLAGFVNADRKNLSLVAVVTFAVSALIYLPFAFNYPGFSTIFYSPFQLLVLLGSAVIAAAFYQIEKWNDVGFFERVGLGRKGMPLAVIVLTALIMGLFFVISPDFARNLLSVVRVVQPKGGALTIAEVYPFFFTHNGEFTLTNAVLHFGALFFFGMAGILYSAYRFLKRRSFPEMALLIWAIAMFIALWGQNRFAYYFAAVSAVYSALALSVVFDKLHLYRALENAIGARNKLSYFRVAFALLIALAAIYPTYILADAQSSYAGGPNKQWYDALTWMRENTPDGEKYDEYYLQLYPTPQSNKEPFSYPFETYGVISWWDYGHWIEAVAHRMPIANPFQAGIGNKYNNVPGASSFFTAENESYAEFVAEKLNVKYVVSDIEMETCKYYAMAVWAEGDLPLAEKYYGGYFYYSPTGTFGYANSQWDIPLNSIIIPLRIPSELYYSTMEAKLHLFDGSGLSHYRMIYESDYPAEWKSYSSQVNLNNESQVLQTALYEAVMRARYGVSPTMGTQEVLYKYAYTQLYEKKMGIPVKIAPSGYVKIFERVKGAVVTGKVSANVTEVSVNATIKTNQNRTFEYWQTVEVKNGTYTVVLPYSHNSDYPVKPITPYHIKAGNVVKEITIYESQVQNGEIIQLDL

`C/C(=C/CC/C(C)=C\CC/C(C)=C\CC/C(C)=C/CC/C(C)=C\CC/C(C)=C\CC[C@H](C)CCOP(=O)(O)O)CC/C=C(/C)CC/C=C(/C)CCCC(C)CCCC(C)CCCC(C)C` (stereo partly shown) [dolichol-phosphate]: the “X-ray crystal structure (LCP), 2.7 Å” value is “LLO binding site was occupied by a dolichol-phosphate, instead of an intact LLO”.

These data come from publication PMC8342417, “The structure of an archaeal oligosaccharyltransferase provides insight into the strict exclusion of proline from the N-glycosylation sequon” (Communications Biology, 2021).
